Laboratory results published in paper PMC2725291, “Genetic and Molecular Basis of Individual Differences in Human Umami Taste Perception” (PLoS ONE, 2009).

Molecular target: T1, TAS1R1-372A and TAS1R3-757R (Homo sapiens, UniProt Q7RTX0+Q7RTX1, C757R)
T1 construct: expressed in transfected cells; host or cells: HEK293
T1 sequence (Q7RTX1 21-841): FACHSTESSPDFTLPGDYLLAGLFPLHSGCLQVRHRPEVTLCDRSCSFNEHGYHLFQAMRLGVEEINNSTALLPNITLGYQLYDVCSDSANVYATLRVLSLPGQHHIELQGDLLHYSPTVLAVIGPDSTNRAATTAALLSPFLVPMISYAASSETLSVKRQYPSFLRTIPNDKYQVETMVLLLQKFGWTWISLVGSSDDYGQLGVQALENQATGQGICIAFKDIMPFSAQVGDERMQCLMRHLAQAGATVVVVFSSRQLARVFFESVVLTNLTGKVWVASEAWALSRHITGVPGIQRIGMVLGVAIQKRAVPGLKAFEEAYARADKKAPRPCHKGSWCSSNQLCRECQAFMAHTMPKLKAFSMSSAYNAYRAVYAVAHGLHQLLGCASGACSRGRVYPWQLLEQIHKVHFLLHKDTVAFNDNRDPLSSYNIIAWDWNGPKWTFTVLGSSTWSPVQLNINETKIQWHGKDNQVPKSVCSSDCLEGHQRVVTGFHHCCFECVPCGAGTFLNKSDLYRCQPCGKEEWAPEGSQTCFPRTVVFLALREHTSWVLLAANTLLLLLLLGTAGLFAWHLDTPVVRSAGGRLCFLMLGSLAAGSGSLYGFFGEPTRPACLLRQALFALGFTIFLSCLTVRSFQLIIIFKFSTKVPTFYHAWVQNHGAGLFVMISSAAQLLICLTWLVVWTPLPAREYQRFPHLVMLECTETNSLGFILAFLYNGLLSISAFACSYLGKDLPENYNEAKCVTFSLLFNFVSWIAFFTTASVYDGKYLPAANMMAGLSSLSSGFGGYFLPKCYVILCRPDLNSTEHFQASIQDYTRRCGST
T1 sequence (Q7RTX0 21-852 C757R): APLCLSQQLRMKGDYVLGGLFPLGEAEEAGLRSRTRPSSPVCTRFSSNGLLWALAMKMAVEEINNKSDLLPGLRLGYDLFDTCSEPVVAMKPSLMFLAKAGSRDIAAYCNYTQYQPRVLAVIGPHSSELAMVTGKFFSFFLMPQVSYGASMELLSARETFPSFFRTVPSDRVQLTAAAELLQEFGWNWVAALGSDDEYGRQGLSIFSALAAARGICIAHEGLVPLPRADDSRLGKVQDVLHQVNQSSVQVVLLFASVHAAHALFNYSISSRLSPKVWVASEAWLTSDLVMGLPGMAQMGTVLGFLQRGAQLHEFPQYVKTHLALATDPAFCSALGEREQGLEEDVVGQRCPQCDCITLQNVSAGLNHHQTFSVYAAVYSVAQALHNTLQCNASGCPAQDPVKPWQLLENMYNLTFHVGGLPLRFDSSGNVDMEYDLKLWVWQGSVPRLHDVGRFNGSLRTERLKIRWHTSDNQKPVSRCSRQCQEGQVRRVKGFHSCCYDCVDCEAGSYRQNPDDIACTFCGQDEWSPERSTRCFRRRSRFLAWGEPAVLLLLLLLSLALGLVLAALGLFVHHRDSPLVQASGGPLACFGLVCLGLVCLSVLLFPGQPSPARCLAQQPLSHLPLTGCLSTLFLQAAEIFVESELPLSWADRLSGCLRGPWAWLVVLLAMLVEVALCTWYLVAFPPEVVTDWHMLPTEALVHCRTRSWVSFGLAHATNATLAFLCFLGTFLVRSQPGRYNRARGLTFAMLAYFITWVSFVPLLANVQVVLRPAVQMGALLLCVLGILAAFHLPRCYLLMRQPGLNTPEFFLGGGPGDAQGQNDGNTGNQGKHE
Assay: Ca2+ imaging (bath perfusion) in HEK cells transfected with TAS1R1-372A, TAS1R3-757R and Gα16-i3
Type: cell-based
Settings: 5∼100 mM
Experimental: HEK293 cells were cultured at 37°C under a humidified atmosphere containing 5% CO2 in Dulbecco's modified Eagle's medium supplemented with 10% fetal bovine serum. To obtain reproducible Ca^2+ responses, cells were split every 2 days before cells become confluent. Cells were discarded after 2 months of passages and new cells were prepared from frozen-stock. For calcium imaging experiments, cells were seeded onto a 35 mm recording chamber or poly-D-lysine coated 96-well black-wall, clear-bottom recording plates. After 24 hrs at 37°C, confluent cells (60∼70%) were washed in OptiMEM medium supplemented with GlutaMAX-I (invitrogen) and plasmid DNAs were transiently cotransfected into HEK293 cells using Lipofectamine2000 regent (invitrogen) (2.0 µl per 1.0 µg DNA). TAS1Rs (or their mutants) and Gαl6-i3 were transfected using 1.5 and 1.0 µg of plasmid for 35 mm recording chambers, 0.09 and 0.06 µg of plasmid per well for 96-well plates, respectively. […] Immuno staining and Ca^2+ imaging assays were performed 36∼40 hrs after transfection.
Two Ca^2+ imaging systems were used. A bath perfusion system was used for kinetics of activation. Transfected cells in 35 mm recording chambers were washed in Hank's balanced salt solution (HBSS) containing 10 mM HEPES, pH 7.4, and loaded with 3.0 µM Fluo-4 acetoxymethyl ester (invitrogen) for 1.0 hr at 37°C. The dye-loaded cells were subjected to Ca^2+ imaging. Taste solutions diluted in HBSS were applied sequentially to the cells for 30 s with a peristaltic pump at a flow rate of 1.5 ml/min, and fluorescence images were obtained using a S Fluor ×20/0.75 objective lens (Nikon) via a cooled-CCD camera (C6790, Hamamatsu Photonics) fitted to a TE300 microscope (Nikon). Acquisition and analysis of these fluorescence images used AquaCosmos software (v. 1.3, Hamamatsu Photonics). A 3 min interval was left between each tastant application to ensure that the cells were not desensitized as a result of the previous application of tastants. Responses were measured from 30 individual responding cells. […] Isoproterenol (ISO, 10 µM) was used as positive control, which stimulates endogenous β-adrenergic receptors, providing that the Gα16-dependent signal transduction cascade was functional.

In the case of `N[C@@H](CCC(=O)O)C(=O)[O-].[Na+]` [MSG, monosodium glutamate], the “activation (Ca2+ mobilization) of transfected cells” value is reported as “elicited transient intracellular calcium increases”.
